Results on 21 compounds are retold here after patent US11964960B2 (Cornell University, priority 2018, dated 2024).

For data set [1], the target named is T1, S1PR2 (Homo sapiens, UniProt O95136). The settings on record: Bioorg. Med. Chem. 21: 5373-5382 (2013); cited from earlier work.
Target sequence in this assay (O95136 whole entry): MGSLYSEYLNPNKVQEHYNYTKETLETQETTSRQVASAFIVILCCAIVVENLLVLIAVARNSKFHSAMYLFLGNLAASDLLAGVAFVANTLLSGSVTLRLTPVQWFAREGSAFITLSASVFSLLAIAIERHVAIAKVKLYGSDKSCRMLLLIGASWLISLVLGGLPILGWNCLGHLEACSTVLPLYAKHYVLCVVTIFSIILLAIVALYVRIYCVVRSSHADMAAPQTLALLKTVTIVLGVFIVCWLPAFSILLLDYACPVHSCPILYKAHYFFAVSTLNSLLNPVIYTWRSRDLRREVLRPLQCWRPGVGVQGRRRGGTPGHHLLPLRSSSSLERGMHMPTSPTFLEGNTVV
For data set [2] the following is noted: cited from earlier work.
The target of another data set is T2, S1P2 (Homo sapiens, UniProt O95136).
T2 construct: Flag; expressed in transfected cells; host or cells: Chinese hamster ovary (CHO) cells, doxycycline-inducible (CHO-S1P2-FL / CHO-S1PR2 FL)
T2 sequence (O95136 whole entry, species assumed): as the sequence (O95136 whole entry) above
Briefly: GLISA RhoA activation - antagonist assay. The format is cell-based. The conditions noted are these: CHO-S1P2-FL cells; for inhibition at 1 µM: 1 μM compound; for IC50: 1 hour compound incubation, then for 5 min. The procedure, abridged: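 Doxycycline-induced CHO cells expressing Flag-tagged S1P2, serum-starved, pretreated 1 h at 37 °C with compound (1 nM-10 μM), then washed and stimulated 5 min with […]. Protein-normalized lysates captured on GTP-RhoA plates; active RhoA quantified by G-LISA.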

The target of data set [3] is T1, S1PR2. Briefly: FLIPR calcium activation - antagonist assay. On the set-up: Flag; expressed in transfected cells; host or cells: Chinese hamster ovary (CHO) cells, doxycycline-inducible (CHO-S1P2-FL / CHO-S1PR2 FL). It is filed as cell-based. The settings on record: CHO-S1PR2 FL cells, 1 hour compound incubation. How it is done:
FLIPR Calcium Activation—Antagonist Assay
An assay was performed using Fluo-4 NW Calcium activation kit (#F36206) purchased from Molecular Probes/Life Technologies, Grand Island, NY. Calcium assay was performed according to the manufacturer's instructions. Briefly, CHO-S1PR2 FL cells (5×10^4 cells (for 384 well plate) or 7.5×10^4 cells (for 96 well plate)) were seeded 24 hours prior to experiment in serum free IMDM media supplemented with 0.1% fatty acid free BSA/PBS (SFM). After starvation, cells were stimulated with the compounds described herein (1 nM-10 μM) for 1 hour in SFM at room temperature. Cells were then washed with PBS and prepared for Calcium induction assay as instructed in Fluo-4 NW Calcium activation kit protocol. For calcium induction, 100 nM […] or 1 μM ATP were added in ligand plate places in the Hamamatsu FDSS6000 drug screening system. Ligand was added in 15 seconds intervals for 15 min and signal ratio of […] was measured using the Hamamatsu FDSS6000 instrument.
Target sequence in this assay (O95136 whole entry, species assumed): as the sequence (O95136 whole entry) above

A further data set has as its system bile duct ligated mice. The data set can be described thus: Bile duct ligation (BDL) liver fibrosis model. It is filed as in vivo, mouse. The conditions noted are these: 30 mg/kg daily. The protocol: Six to eight-week-old mice were subjected to bile duct ligation to induce mouse cirrhotic liver injury model. To perform BDL, mice were subjected to a mid-abdominal incision, under general anesthesia. The common bile duct was ligated in two adjacent positions approximately 1 cm from the porta hepatis. The duct was then severed by incision between the two sites of ligation. One day after surgery, mice were administered compounds described herein at […] once daily. Drug delivery was performed by gavage in 0.5% methylcellulose with 0.1 Tween 80. Eight days after BDL surgery mice were harvested, though the harvesting can be performed at any suitable period of time, including 14 days after BDL surgery. Blood serum was collected for liver enzyme analysis and livers were harvested and were either snap frozen or fixed with 4% PFA and cryopreserved in OCT for sectioning and immunohistochemical analysis.
To test whether the compounds described herein act as S1PR2 antagonists in vivo, their effect was tested in BDL, a clinically relevant liver cholestasis model. The common bile duct was ligated and resected as described herein to cause biliary epithelial damage. One day post-surgery, mice were treated daily with 30 mg/kg of compound 29 or JTE-013:
In this double-blind mouse BDL study, the compounds were administered orally by gavage. […]

For data set [4], the target named is T3, S1PR2 (Mus musculus, UniProt P52592).
T3 construct: Liver tissues were collected at necropsy, flash frozen, and pulverized; from tissue; host or cells: mouse liver (bile duct ligation model)
T3 sequence (P52592 whole entry): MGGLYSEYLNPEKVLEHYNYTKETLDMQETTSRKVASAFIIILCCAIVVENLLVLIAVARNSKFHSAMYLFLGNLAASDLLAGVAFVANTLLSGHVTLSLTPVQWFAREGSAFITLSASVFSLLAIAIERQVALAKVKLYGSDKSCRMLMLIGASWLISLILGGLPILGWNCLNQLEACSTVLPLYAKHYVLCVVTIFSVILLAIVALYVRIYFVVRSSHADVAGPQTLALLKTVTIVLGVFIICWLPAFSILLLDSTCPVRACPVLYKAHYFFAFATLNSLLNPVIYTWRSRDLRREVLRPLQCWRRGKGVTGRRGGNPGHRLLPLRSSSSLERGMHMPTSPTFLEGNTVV
Briefly: Immunoblot analysis of S1PR2 levels in liver tissue from mouse BDL study. The settings on record: 30 mg/kg daily, orally; liver at end of eight-day study (FIG. 3). It is filed as in vivo. Background: In western blotting, separated proteins are transferred to a membrane and probed.
Description: Liver tissues were collected at necropsy, flash frozen, and pulverized. The powder was resuspended in RIPA lysis buffer with PI, NAF, and sodium deoxy cholate.
Liver samples collected in an identical manner from S1PR2 global KO and WT mice served as positive controls.

In data set [5] the test system is BDL murine models of liver disease. The conditions noted are these: multiple studies (Wang 2017; Yang 2015); cited from earlier work.
Data set [6] relates to WT mice subjected to ischemia/reperfusion (I/R). The conditions noted are these: I/R (Kim 2015); cited from earlier work.

The structures appear in SMILES notation.

On to `Cc1cc(C(=O)Cn2cc(C#N)ccc2=O)c(C)n1Cc1ccccc1` [CYM-5520], for which the “activity at the S1PR2 receptor” value on S1PR2 [1] was “weak allosteric agonist”. The aqueous solubility result in data set [2] is reported as “poor aqueous solubility”.
Broadly, the inhibition is the change of the read-out against control, counted positive when it falls. Higher therefore signals a strong effect. As usually defined, the IC50 is the concentration at which inhibition is half-maximal. At S1P2, `Cc1cc(C(=O)Cn2cc(Br)ccc2=O)c(C)n1Cc1ccccc1` [Compound 1, 1-(2-(1-benzyl-2,5-dimethyl-1H-pyrrol-3-yl)-2-oxoethyl)-5-bromopyridin-2(1H)-one] came in with an inhibition at 1 µM of 87% and an IC50 of 52 nM. The IC50 at S1PR2 [3] was 58 nM.
`C#Cc1ccc(=O)n(CC(=O)c2cc(C)n(Cc3ccccc3)c2C)c1` [Compound 3, 1-(2-(1-benzyl-2,5-dimethyl-1H-pyrrol-3-yl)-2-oxoethyl)-5-ethynylpyridin-2(1H)-one]: at S1P2, the inhibition at 1 µM is 69% and the IC50 is 134 nM. Moreover, the IC50 on S1PR2 [3] was 89 nM.
On S1P2, `Cc1c(C(=O)Cn2cc(Br)ccc2=O)cnn1Cc1ccccc1` [Compound 27, 1-(2-(1-benzyl-5-methyl-1H-pyrazol-4-yl)-2-oxoethyl)-5-bromopyridin-2(1H)-one] had an inhibition at 1 µM of 92% and an IC50 of 4.9 nM. The IC50 on S1PR2 [3] is 11 nM.
At S1P2, `C#Cc1ccc(=O)n(CC(=O)c2cnn(Cc3ccccc3)c2C)c1` [Compound 29, 1-(2-(1-benzyl-5-methyl-1H-pyrazol-4-yl)-2-oxoethyl)-5-ethynylpyridin-2(1H)-one] came in with an inhibition at 1 µM of 79% and an IC50 of 69 nM. Moreover, the IC50 at S1PR2 [3] was 23 nM.
The compound `Cc1c(C(=O)Cn2cc(Br)ccc2=O)cnn1Cc1cccc(C(=O)O)c1` [Compound 32, 3-((4-(2-(5-bromo-2-oxopyridin-1(2H)-yl)acetyl)-5-methyl-1H-pyrazol-1-yl)methyl)benzoic acid] came in with an inhibition at 1 µM at S1P2 below 10%. Further, at S1PR2 [3], the IC50 was determined as 8700 nM.
In turn, `Cc1c(C(=O)Cn2cc(Br)ccc2=O)cnn1Cc1cccnc1` [Compound 33, 5-bromo-1-(2-(5-methyl-1-(pyridin-3-ylmethyl)-1H-pyrazol-4-yl)-2-oxoethyl)pyridin-2(1H)-one] came in with an inhibition at 1 µM on S1P2 of 14%. Also, at S1PR2 [3], the IC50 is 5600 nM.
For `C=Cc1ccc(=O)n(CC(=O)c2cnn(Cc3ccccc3)c2C)c1` [Compound 34, 1-(2-(1-benzyl-5-methyl-1H-pyrazol-4-yi)-2-oxoethyl)-5-vinylpyridin-2(1H)-one], at S1P2, the inhibition at 1 µM stood at 79% and the 50% inhibitory concentration (IC50) was 82 nM. Further, the IC50 on S1PR2 [3] worked out at 150 nM.
`C#Cc1ccc(=O)n(CC(=O)c2cnn(Cc3cccnc3)c2C)c1` [Compound 35, 5-ethynyl-1-(2-(5-methyl-1-(pyridin-3-ylmethyl)-1H-pyrazol-4-yl)-2-oxoethyl)pyridin-2(1H)-one] returned an inhibition at 1 µM against S1P2 of 69%. Further, the IC50 on S1PR2 [3] is 386 nM.
With `C#Cc1ccc(=O)n(CC(=O)c2cnn(Cc3cccc(C(=O)O)c3)c2C)c1` [Example 36, 3-((4-(2-(5-Ethynyl-2-oxopyridin-1(2H)-yl)acetyl)-5-methyl-1H-pyrazol-1-yl)methyl)benzoic Acid], on S1P2, the inhibition at 1 µM was below 10%. In addition, on S1PR2 [3], the IC50 was 9800 nM.
`Cc1c(C(=O)Cn2ccc(Br)cc2=O)cnn1Cc1ccccc1` [Example 37, 1-(2-(1-Benzyl-5-methyl-1H-pyrazol-4-yl)-2-oxoethyl)-4-bromopyridin-2(1H)-one] gave an inhibition at 1 µM against S1P2 of 15%. On S1PR2 [3], the IC50 came to 4400 nM.
Turning to `C#Cc1ccn(CC(=O)c2cnn(Cc3ccccc3)c2C)c(=O)c1` [Example 38], at 1 µM the inhibition on S1P2 was 17%. At S1PR2 [3], the IC50 was 3600 nM.
At S1P2, `Cc1cc(Br)cn(CC(=O)c2cnn(Cc3ccccc3)c2C)c1=O` [Example 39, 1-(2-(1-Benzyl-5-methyl-1H-pyrazol-4-yl)-2-oxoethyl)-5-bromo-3-methylpyridin-2(1H)-one] displayed an inhibition at 1 µM of 69%. Also, the IC50 on S1PR2 [3] is 364 nM.
On S1P2, `Cc1cc(=O)n(CC(=O)c2cnn(Cc3ccccc3)c2C)cc1Br` [Example 40, 1-(2-(1-Benzyl-5-methyl-1H-pyrazol-4-yl)-2-oxoethyl)-5-bromo-4-methylpyridin-2(1H)-one] had an inhibition at 1 µM of 67%. The IC50 on S1PR2 [3] came to 395 nM.
On to `COc1cc(Br)cn(CC(=O)c2cnn(Cc3ccccc3)c2C)c1=O` [Example 41, 1-(2-(1-Benzyl-5-methyl-1H-pyrazol-4-yl)-2-oxoethyl)-5-bromo-3-methoxypyridin-2(1H)-one], for which, on S1P2, 1 µM produced 63% inhibition. Moreover, the IC50 at S1PR2 [3] was determined as 694 nM.
Taken in the same sequence, the figures for `C#Cc1cc(C)c(=O)n(CC(=O)c2cnn(Cc3ccccc3)c2C)c1` [Example 42, 1-(2-(1-Benzyl-5-methyl-1H-pyrazol-4-yl)-2-oxoethyl)-5-ethynyl-3-methylpyridin-2(1H)-one] were 64% and 567 nM.
In turn, `C#Cc1ccc(=O)n(CC(=O)c2cnn(Cc3ccccc3)c2C)n1` [Example 43, 2-(2-(1-Benzyl-5-methyl-1H-pyrazol-4-yl)-2-oxoethyl)-6-ethynylpyridazin-3(2H)-one] returned an inhibition at 1 µM against S1P2 of 70%. The IC50 on S1P2 was found to be 200 nM; at S1PR2 [3] it was 297 nM.
`Cc1cc(C(=O)Cn2cc(C#N)ccc2=O)c(C)n1CCc1ccccc1` [Example 91, 1-(2-(2,5-Dimethyl-1-phenethyl-1H-pyrrol-3-yl)-2-oxoethyl)-6-oxo-1,6-dihydropyridine-3-carbonitrile] returned an inhibition at 1 µM at S1P2 of 12%.
`Cc1cc(C(=O)Cn2cc(C#N)ccc2=O)c(C)n1C(C)c1ccccc1` (centres unmarked) [Example 92, 1-(2-(2,5-Dimethyl-1-(1-phenylethyl)-1H-pyrrol-3-yl)-2-oxoethyl)-6-oxo-1,6-dihydropyridine-3-carbonitrile]: at S1P2, the inhibition at 1 µM worked out at 31%.
In turn, `Cc1cc(C(=O)Cn2cc(C#N)ccc2=O)c(C)n1Cc1ccc2c(c1)OCO2` [Example 93, 1-(2-(1-(Benzo[d][1,3]dioxol-5-ylmethyl)-2,5-dimethyl-1H-pyrrol-3-yl)-2-oxoethyl)-6-oxo-1,6-dihydropyridine-3-carbonitrile] had an inhibition at 1 µM at S1P2 of 10%.
As for `Cc1nn(C)c2nc(NNC(=O)Nc3cc(Cl)nc(Cl)c3)cc(C(C)C)c12` [JTE-013], the “serum ALB levels” value in the data set on bile duct ligated mice (orally by gavage (FIG. 2C)) is listed as “remained constant”. Also, the “survival / mortality post bile duct ligation” value in the data set on bile duct ligated mice (orally by gavage, from one day post-surgery, eight-day study (FIG. 1A)) was “lower than that observed for the vehicle arm”. In addition, on S1PR2 [4], the “S1PR2 levels in liver (immunoblot)” value is “visible”. Besides, the liver injury result in data set [5] is listed as “protect against liver injury”. Besides, in data set [6], the edema ratio result is listed as “dramatic decrease”, the infarct ratio entry is “dramatic decrease” and the neurological scores result is “improved”.
